Data from ChEMBL document CHEMBL1208675, “Validated QSAR analysis of some diaryl substituted pyrazoles as CCR2 inhibitors by various linear and nonlinear multivariate chemometrics methods” (Eur J Med Chem, 2010).

What follows are compounds tested against C-C chemokine receptor type 2 (Homo sapiens, UniProt P41597) (assay: Inhibition of CCR2).
Chain of C-C chemokine receptor type 2 (P41597 whole entry): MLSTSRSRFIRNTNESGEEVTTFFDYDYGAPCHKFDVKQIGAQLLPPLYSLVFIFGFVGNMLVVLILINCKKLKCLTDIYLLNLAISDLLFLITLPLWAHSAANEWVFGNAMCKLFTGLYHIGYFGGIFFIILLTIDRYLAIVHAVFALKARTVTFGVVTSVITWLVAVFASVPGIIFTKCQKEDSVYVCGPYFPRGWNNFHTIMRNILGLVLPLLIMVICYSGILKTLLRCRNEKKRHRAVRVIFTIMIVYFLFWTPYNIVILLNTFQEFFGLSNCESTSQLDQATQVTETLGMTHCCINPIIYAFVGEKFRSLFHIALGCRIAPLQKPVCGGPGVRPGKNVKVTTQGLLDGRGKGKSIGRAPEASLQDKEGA

SMILES | IC50 [nM]
CCN(CC)C(C)CCCNC(=O)CCc1cc(-c2cc(Cl)cc(Cl)c2)nn1-c1ccc2ccccc2c1 (centres undefined) | 108
COC(=O)[C@H](CCCN=C(N)N)NC(=O)CCNCc1cc(-c2cc(Cl)cc(Cl)c2)nn1-c1ccc2ccccc2c1 | 43
CCCCC(CCCN(CC)CC)NC(=O)CCOc1cc(-c2cc(Cl)cc(Cl)c2)nn1-c1ccc2ccccc2c1 (centres undefined) | 52
COC(=O)[C@H](Cc1cnc[nH]1)NC(=O)CCc1cc(-c2cc(Cl)cc(Cl)c2)nn1-c1ccc2ccccc2c1 | 2840
CCN(CC)CCCC(C)NC(=O)CCCc1cc(-c2cc(Cl)cc(Cl)c2)nn1-c1ccc2ccccc2c1 (centres undefined) | 6470

Second part, the compound after the results:

IC50 [nM] | SMILES
9330 | O=C(CCc1cc(-c2cc(Cl)cc(Cl)c2)nn1-c1ccc2ccccc2c1)NCCCc1ccc2c(n1)NCCC2
1800 | CN(C)CCCCNC(=O)CCc1cc(-c2cc(Cl)cc(Cl)c2)nn1-c1ccc2ccccc2c1
1220 | CCN(CC)CCCCNC(=O)CCc1cc(-c2cc(Cl)cc(Cl)c2)nn1-c1ccc2ccccc2c1
1120 | O=C(CCc1cc(-c2cc(Cl)cc(Cl)c2)nn1-c1ccc2ccccc2c1)NCCCc1ccncc1
